From the NIST ThermoML archive (doi:10.1021/je050200w)

Columns and labels:
[1] = 101 kPa, Liquid
[2] = xn = mol fraction of the nth substance listed; details: 101 kPa, Liquid, x1 = 1

CCCCCCCCO [octan-1-ol]
[1]
Details	mass density [kg/m3]	viscosity [mPa·s]
283.15 K	832.1	13.49
288.15 K	828.6	10.87
293.15 K	825.2	8.944
298.15 K	821.9	7.498
303.15 K	818.4	6.273
308.15 K	815	5.342
313.15 K	811.4	4.54

CCCCCCCCCCCO [1-undecanol]
[1]
Details	mass density [kg/m3]	viscosity [mPa·s]
293.15 K	832.2	17.28
298.15 K	828.8	13.72
303.15 K	825.4	11.52
308.15 K	821.7	9.35
313.15 K	818.6	7.841

CCCCCCCCCCO [decan-1-ol]
[1]
Details	mass density [kg/m3]	viscosity [mPa·s]
283.15 K	836.6	22.06
288.15 K	833.3	17.99
293.15 K	829.9	14.39
298.15 K	826.5	11.74
303.15 K	823	9.561
308.15 K	819.6	8
313.15 K	816.3	6.831

CCCCCCCCO [octan-1-ol] + CCCCCCCCCCO
[2]
Details	mass density [kg/m3]	viscosity [mPa·s]
283.15 K	832.1	13.49
288.15 K	828.6	10.87
293.15 K	825.2	8.944
298.15 K	821.9	7.498
303.15 K	818.4	6.273
308.15 K	815	5.342
313.15 K	811.4	4.54

CCCCCCCCCO [nonan-1-ol]
[1]
Details	mass density [kg/m3]	viscosity [mPa·s]
283.15 K	835	17.44
288.15 K	831.5	14.27
293.15 K	828.1	11.63
298.15 K	824.7	9.519
303.15 K	821.3	7.806
308.15 K	817.8	6.604
313.15 K	814.3	5.668
